Reference: US20250109127A1, “METHODS OF USE OF PHENOXYPROPYLAMINE COMPOUNDS TO TREAT DEPRESSION” (Minerva Neurosciences, Inc., priority 2013, published 2025)
Where a name gives a salt, the structure may show the parent alone.

Columns and labels:
subjective sleep = assay: Leeds Sleep Evaluation Questionnaire (LSEQ); format: in vivo, human; conditions: SON-117 1 mg; after single administration, sustained up to day 16
5-HT2A = 5-HT2A (Homo sapiens, UniProt P28223); assay: Receptor binding, 5-HT2A
[1] = Pharmacokinetic study, plasma concentration on day 1 and day 14; format: in vivo; conditions: day 1 and day 14 after dosing with SON-117
Description: were examined in pharmacokinetic studies.
FIG. 34 illustrates the plasma concentration of SON-117 as a function of time on day 1 after dosing with SON-117. FIG. 35 illustrates the plasma concentration of SON-117 as a function of time on day 14 after dosing with SON˜117.
FIG. 36 illustrates the plasma concentration of the M1 metabolite of SON-117 as a function of time on day 1 after dosing with SON-117. FIG. 37 illustrates the plasma concentration of the M1 metabolite of SON-117 as a function of time on day 14 after dosing with SON-117.

Sequence of 5-HT2A (P28223 whole entry): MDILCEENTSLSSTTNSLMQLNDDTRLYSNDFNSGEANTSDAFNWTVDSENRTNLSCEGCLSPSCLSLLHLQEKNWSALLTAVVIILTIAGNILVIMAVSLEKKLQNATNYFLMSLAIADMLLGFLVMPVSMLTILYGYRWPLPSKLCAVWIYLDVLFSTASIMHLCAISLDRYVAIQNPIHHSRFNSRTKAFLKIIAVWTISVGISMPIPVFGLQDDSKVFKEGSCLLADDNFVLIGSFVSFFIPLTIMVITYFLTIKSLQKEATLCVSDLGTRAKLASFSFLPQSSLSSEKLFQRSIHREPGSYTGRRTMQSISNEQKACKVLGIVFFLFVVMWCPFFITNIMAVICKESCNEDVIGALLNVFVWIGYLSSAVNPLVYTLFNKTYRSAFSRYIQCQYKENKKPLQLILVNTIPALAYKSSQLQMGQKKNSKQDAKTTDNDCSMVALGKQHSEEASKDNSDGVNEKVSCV

Cc1nnc(-c2cc3c(OC[C@@H](O)CN4CCC(c5ccc(Cl)c(Cl)c5)CC4)cccc3o2)o1 [SON-117, (S)-1-(4-(3,4-dichlorophenyl)piperidino)-3-(2-(5-methyl-1,3,4-oxadiazol-2-yl)benzo(b)furan-4-yloxy)-2-propanol hydrochloride]
LSEQ getting to sleep (subjective sleep): easier
LSEQ quality of sleep (subjective sleep): improved
affinity, 5-HT2A receptor binding (5-HT2A): high affinity
AUC, dependence on dose [1]: dose-proportional increase
Cmax, dependence on dose [1]: dose-proportional increase
